Results from patent publication US11697648B2, “Fused pyrimidine pyridinone compounds as JAK inhibitors” (THERAVANCE BIOPHARMA R&D IP, LLC, priority 2019, dated 2023).

Each compound was assayed against JAK2 (Homo sapiens (Human), UniProt O60674) (assay: Biochemical JAK2 kinase assay (LanthaScreen)). Conditions: not given.
How it was run: (§1)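 GST-JAK + GFP-STAT1 peptide, HEPES pH 7.5/MgCl2/EGTA/Brij-35 buffer; cpd preincubation 1 h RT; ATP start, 1 h RT; stop with 10 mM EDTA + 2 nM Tb-anti-pSTAT1; TR-FRET 520/495. 4-parameter IC50 → pKi (Cheng-Prusoff).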

Sequence of JAK2 (O60674 whole entry): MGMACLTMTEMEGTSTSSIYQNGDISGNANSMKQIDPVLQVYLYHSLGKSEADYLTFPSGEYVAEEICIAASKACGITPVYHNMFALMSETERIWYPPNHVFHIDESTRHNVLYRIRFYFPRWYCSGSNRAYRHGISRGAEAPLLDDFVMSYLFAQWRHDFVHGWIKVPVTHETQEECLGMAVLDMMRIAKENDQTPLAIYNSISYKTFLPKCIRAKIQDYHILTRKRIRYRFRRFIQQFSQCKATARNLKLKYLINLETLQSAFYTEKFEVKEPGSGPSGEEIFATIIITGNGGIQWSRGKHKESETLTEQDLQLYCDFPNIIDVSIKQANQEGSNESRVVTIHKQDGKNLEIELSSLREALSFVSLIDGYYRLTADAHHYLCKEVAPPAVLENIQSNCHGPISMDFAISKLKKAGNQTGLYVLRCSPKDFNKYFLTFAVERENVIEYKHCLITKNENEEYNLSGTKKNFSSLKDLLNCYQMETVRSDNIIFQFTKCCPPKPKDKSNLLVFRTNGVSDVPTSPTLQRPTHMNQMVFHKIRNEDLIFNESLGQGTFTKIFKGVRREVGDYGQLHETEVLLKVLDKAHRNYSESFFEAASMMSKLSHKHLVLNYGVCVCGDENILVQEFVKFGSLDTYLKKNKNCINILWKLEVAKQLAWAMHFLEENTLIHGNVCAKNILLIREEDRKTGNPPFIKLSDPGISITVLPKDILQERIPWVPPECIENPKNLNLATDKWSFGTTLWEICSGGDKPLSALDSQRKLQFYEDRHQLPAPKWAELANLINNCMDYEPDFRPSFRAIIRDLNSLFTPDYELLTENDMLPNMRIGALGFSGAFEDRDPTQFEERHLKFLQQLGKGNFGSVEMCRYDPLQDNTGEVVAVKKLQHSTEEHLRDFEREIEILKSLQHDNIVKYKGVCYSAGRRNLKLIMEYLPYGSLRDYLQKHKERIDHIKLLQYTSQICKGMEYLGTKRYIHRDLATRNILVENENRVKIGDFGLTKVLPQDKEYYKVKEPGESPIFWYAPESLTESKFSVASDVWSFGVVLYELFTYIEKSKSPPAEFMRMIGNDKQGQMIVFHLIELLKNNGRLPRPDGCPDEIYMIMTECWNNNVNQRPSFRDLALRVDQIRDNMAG

SMILES | JAK 2 (pKi)
C=CC(=O)N1CC(CCn2c(=O)ccc3cnc(Nc4ccc(N(C)Cc5ccccc5)cc4)nc32)C1 [Example 225] | E (E represents a pKi value of 7 or below (Ki of 100 nM or above))
C=CC(=O)N1CC(CCn2c(=O)ccc3cnc(Nc4ccn(C)n4)nc32)C1 [Example 226] | E (E represents a pKi value of 7 or below (Ki of 100 nM or above))
C[C@H]1CN(c2ccc(Nc3ncc4ccc(=O)n(CCC5CN(C(=O)/C=C/CN(C)C)C5)c4n3)cc2)CCN1C [Example 227] | E (E represents a pKi value of 7 or below (Ki of 100 nM or above))
C[C@@H]1CN(c2ccc(Nc3ncc4ccc(=O)n(CCC5CN(C(=O)/C=C/CN(C)C)C5)c4n3)cc2)CCN1C [Example 228] | E (E represents a pKi value of 7 or below (Ki of 100 nM or above))
C=CC(=O)N1CCN(CCn2c(=O)ccc3cnc(Nc4cnn(CCOCC)c4)nc32)[C@@H](C)C1 [Example 229] | E (E represents a pKi value of 7 or below (Ki of 100 nM or above))
C=CC(=O)N1CCN(CCn2c(=O)ccc3cnc(Nc4cnn(CCOC(C)C)c4)nc32)[C@@H](C)C1 [Example 230] | E (E represents a pKi value of 7 or below (Ki of 100 nM or above))
C=CC(=O)N1CCN(CCn2c(=O)ccc3cnc(Nc4cnn(C5CCN(C)CC5)c4)nc32)[C@@H](C)C1 [Example 231] | E (E represents a pKi value of 7 or below (Ki of 100 nM or above))
C=CC(=O)N1CCN(CCn2c(=O)ccc3cnc(Nc4cnn(CC(F)F)c4)nc32)[C@@H](C)C1 [Example 232] | E (E represents a pKi value of 7 or below (Ki of 100 nM or above))

These compounds were tested on IL-2 stimulated STAT5 phosphorylation in Tall-1 human T cell line (JAK3) (assay: Cellular JAK3 potency assay: inhibition of IL-2 stimulated pSTAT5 in Tall-1 T cells). Conditions: IL-2 stimulated pSTAT5, Tall-1 T cells.
Format: cell-based
How it was run: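 Tall-1 cells, 45,000 per well, preincubated 1 hour with compound at 37 °C, then stimulated 30 minutes with IL-2 at 300 ng/ml final. pSTAT5 (Tyr694/699) in lysates quantified by AlphaLISA SureFire Ultra. pIC50 derived from inhibition curves, given as mean with SD.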

SMILES | Tall-1 (pIC50)
C=CC(=O)N1CC(CCn2c(=O)ccc3cnc(Nc4ccc(N(C)Cc5ccccc5)cc4)nc32)C1 [Example 225] | C (C represents a pIC50 value between 6 and 6.7 (IC50 between 1 μM and 200 nM))
C=CC(=O)N1CC(CCn2c(=O)ccc3cnc(Nc4ccn(C)n4)nc32)C1 [Example 226] | C (C represents a pIC50 value between 6 and 6.7 (IC50 between 1 μM and 200 nM))
C[C@H]1CN(c2ccc(Nc3ncc4ccc(=O)n(CCC5CN(C(=O)/C=C/CN(C)C)C5)c4n3)cc2)CCN1C [Example 227] | C (C represents a pIC50 value between 6 and 6.7 (IC50 between 1 μM and 200 nM))
C[C@@H]1CN(c2ccc(Nc3ncc4ccc(=O)n(CCC5CN(C(=O)/C=C/CN(C)C)C5)c4n3)cc2)CCN1C [Example 228] | C (C represents a pIC50 value between 6 and 6.7 (IC50 between 1 μM and 200 nM))
C=CC(=O)N1CCN(CCn2c(=O)ccc3cnc(Nc4cnn(CCOCC)c4)nc32)[C@@H](C)C1 [Example 229] | B (B represents a pC50 value between 6.7 (included) and 7.5 (IC50 between 200 nM and 32 nM))
C=CC(=O)N1CCN(CCn2c(=O)ccc3cnc(Nc4cnn(CCOC(C)C)c4)nc32)[C@@H](C)C1 [Example 230] | B (B represents a pC50 value between 6.7 (included) and 7.5 (IC50 between 200 nM and 32 nM))
C=CC(=O)N1CCN(CCn2c(=O)ccc3cnc(Nc4cnn(C5CCN(C)CC5)c4)nc32)[C@@H](C)C1 [Example 231] | B (B represents a pC50 value between 6.7 (included) and 7.5 (IC50 between 200 nM and 32 nM))
C=CC(=O)N1CCN(CCn2c(=O)ccc3cnc(Nc4cnn(CC(F)F)c4)nc32)[C@@H](C)C1 [Example 232] | B (B represents a pC50 value between 6.7 (included) and 7.5 (IC50 between 200 nM and 32 nM))

These compounds were tested against JAK1 (Homo sapiens (Human), UniProt P23458) (assay: Biochemical JAK1 kinase assay (LanthaScreen)). Conditions: not given.
Sequence of JAK1 (P23458 whole entry): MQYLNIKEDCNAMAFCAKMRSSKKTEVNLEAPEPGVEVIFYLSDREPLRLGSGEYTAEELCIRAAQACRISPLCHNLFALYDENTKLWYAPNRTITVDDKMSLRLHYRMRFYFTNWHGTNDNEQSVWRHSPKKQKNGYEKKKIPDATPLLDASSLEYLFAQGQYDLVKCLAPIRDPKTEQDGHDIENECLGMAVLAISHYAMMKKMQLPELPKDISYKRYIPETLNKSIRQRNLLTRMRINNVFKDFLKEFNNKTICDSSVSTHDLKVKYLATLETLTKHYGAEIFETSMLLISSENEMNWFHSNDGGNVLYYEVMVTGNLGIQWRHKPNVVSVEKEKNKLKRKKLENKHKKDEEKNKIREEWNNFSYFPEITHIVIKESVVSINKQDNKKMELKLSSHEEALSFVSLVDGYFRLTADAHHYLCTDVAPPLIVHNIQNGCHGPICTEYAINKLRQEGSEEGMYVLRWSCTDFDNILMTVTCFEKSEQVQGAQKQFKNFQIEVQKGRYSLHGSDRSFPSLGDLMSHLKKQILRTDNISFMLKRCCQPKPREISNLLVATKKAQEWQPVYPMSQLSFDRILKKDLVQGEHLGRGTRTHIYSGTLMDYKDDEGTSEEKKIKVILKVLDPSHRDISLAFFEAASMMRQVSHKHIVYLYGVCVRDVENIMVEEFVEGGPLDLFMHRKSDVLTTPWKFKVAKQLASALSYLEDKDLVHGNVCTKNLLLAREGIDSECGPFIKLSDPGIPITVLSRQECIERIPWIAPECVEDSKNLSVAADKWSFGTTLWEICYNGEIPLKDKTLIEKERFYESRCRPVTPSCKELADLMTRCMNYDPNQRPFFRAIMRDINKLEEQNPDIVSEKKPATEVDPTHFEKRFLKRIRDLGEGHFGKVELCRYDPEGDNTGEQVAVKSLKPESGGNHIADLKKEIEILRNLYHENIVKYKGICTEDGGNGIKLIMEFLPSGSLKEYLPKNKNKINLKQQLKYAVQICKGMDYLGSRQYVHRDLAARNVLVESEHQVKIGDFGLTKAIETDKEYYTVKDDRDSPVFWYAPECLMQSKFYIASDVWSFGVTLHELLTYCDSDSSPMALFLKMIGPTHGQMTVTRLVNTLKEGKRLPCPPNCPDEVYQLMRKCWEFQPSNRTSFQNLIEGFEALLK
How it was run: as §1

SMILES | JAK 1 (pKi)
C=CC(=O)N1CC(CCn2c(=O)ccc3cnc(Nc4ccc(N(C)Cc5ccccc5)cc4)nc32)C1 [Example 225] | E (E represents a pKi value of 7 or below (Ki of 100 nM or above))
C=CC(=O)N1CC(CCn2c(=O)ccc3cnc(Nc4ccn(C)n4)nc32)C1 [Example 226] | E (E represents a pKi value of 7 or below (Ki of 100 nM or above))
C[C@H]1CN(c2ccc(Nc3ncc4ccc(=O)n(CCC5CN(C(=O)/C=C/CN(C)C)C5)c4n3)cc2)CCN1C [Example 227] | E (E represents a pKi value of 7 or below (Ki of 100 nM or above))
C[C@@H]1CN(c2ccc(Nc3ncc4ccc(=O)n(CCC5CN(C(=O)/C=C/CN(C)C)C5)c4n3)cc2)CCN1C [Example 228] | E (E represents a pKi value of 7 or below (Ki of 100 nM or above))
C=CC(=O)N1CCN(CCn2c(=O)ccc3cnc(Nc4cnn(CCOCC)c4)nc32)[C@@H](C)C1 [Example 229] | E (E represents a pKi value of 7 or below (Ki of 100 nM or above))
C=CC(=O)N1CCN(CCn2c(=O)ccc3cnc(Nc4cnn(CCOC(C)C)c4)nc32)[C@@H](C)C1 [Example 230] | E (E represents a pKi value of 7 or below (Ki of 100 nM or above))
C=CC(=O)N1CCN(CCn2c(=O)ccc3cnc(Nc4cnn(C5CCN(C)CC5)c4)nc32)[C@@H](C)C1 [Example 231] | E (E represents a pKi value of 7 or below (Ki of 100 nM or above))
C=CC(=O)N1CCN(CCn2c(=O)ccc3cnc(Nc4cnn(CC(F)F)c4)nc32)[C@@H](C)C1 [Example 232] | E (E represents a pKi value of 7 or below (Ki of 100 nM or above))

The compounds below were run against JAK3 (Homo sapiens (Human), UniProt P52333) (assay: Biochemical JAK3 kinase assay (LanthaScreen)). Conditions: not given.
Sequence of JAK3 (P52333 whole entry): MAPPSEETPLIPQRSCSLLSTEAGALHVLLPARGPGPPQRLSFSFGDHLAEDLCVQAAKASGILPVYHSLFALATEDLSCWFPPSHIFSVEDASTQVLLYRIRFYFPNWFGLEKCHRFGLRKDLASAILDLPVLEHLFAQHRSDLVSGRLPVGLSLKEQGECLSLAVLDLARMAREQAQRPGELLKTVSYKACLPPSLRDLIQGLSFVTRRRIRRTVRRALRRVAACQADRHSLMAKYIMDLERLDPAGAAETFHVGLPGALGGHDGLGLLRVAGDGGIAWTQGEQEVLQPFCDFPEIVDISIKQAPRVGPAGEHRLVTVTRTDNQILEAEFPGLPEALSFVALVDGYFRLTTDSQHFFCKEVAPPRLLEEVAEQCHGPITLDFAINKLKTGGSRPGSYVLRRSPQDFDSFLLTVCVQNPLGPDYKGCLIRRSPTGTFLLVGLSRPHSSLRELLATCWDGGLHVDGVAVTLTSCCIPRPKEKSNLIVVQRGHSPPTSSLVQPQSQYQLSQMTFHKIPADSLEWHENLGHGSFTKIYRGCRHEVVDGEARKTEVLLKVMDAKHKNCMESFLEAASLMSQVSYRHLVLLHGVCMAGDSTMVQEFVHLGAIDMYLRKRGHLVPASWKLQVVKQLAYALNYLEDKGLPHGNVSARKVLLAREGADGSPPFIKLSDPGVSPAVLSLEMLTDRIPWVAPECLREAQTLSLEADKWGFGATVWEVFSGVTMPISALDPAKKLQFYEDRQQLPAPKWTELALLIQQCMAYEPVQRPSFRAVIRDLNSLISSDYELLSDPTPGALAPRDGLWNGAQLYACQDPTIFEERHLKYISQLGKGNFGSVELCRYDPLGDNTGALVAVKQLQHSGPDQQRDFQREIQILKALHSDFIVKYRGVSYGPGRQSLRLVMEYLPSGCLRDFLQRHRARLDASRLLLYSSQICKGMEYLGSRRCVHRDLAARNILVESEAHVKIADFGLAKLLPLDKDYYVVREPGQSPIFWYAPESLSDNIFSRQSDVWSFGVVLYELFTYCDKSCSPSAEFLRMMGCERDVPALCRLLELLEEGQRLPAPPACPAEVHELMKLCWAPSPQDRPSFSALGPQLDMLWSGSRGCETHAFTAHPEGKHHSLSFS
How it was run: as §1

SMILES | JAK 3 (pKi)
C=CC(=O)N1CC(CCn2c(=O)ccc3cnc(Nc4ccc(N(C)Cc5ccccc5)cc4)nc32)C1 [Example 225] | B (B represents pKi value between 9 and 10 (Ki between 1 nM and 0.1 nM))
C=CC(=O)N1CC(CCn2c(=O)ccc3cnc(Nc4ccn(C)n4)nc32)C1 [Example 226] | B (B represents pKi value between 9 and 10 (Ki between 1 nM and 0.1 nM))
C[C@H]1CN(c2ccc(Nc3ncc4ccc(=O)n(CCC5CN(C(=O)/C=C/CN(C)C)C5)c4n3)cc2)CCN1C [Example 227] | B (B represents pKi value between 9 and 10 (Ki between 1 nM and 0.1 nM))
C[C@@H]1CN(c2ccc(Nc3ncc4ccc(=O)n(CCC5CN(C(=O)/C=C/CN(C)C)C5)c4n3)cc2)CCN1C [Example 228] | B (B represents pKi value between 9 and 10 (Ki between 1 nM and 0.1 nM))
C=CC(=O)N1CCN(CCn2c(=O)ccc3cnc(Nc4cnn(CCOCC)c4)nc32)[C@@H](C)C1 [Example 229] | B (B represents pKi value between 9 and 10 (Ki between 1 nM and 0.1 nM))
C=CC(=O)N1CCN(CCn2c(=O)ccc3cnc(Nc4cnn(CCOC(C)C)c4)nc32)[C@@H](C)C1 [Example 230] | B (B represents pKi value between 9 and 10 (Ki between 1 nM and 0.1 nM))
C=CC(=O)N1CCN(CCn2c(=O)ccc3cnc(Nc4cnn(C5CCN(C)CC5)c4)nc32)[C@@H](C)C1 [Example 231] | B (B represents pKi value between 9 and 10 (Ki between 1 nM and 0.1 nM))
C=CC(=O)N1CCN(CCn2c(=O)ccc3cnc(Nc4cnn(CC(F)F)c4)nc32)[C@@H](C)C1 [Example 232] | A (A represents a pKi value≥10 (Ki≤0.1 nM))

Same assay, conditions: selectivity JAK3 over JAK1, difference of pKi

SMILES | JAK3 (pKi)-JAK1 (pKi)
C=CC(=O)N1CC(CCn2c(=O)ccc3cnc(Nc4ccc(N(C)Cc5ccccc5)cc4)nc32)C1 [Example 225] | A (A represents a value of 3 or above)
C=CC(=O)N1CC(CCn2c(=O)ccc3cnc(Nc4ccn(C)n4)nc32)C1 [Example 226] | A (A represents a value of 3 or above)
C[C@H]1CN(c2ccc(Nc3ncc4ccc(=O)n(CCC5CN(C(=O)/C=C/CN(C)C)C5)c4n3)cc2)CCN1C [Example 227] | A (A represents a value of 3 or above)
C[C@@H]1CN(c2ccc(Nc3ncc4ccc(=O)n(CCC5CN(C(=O)/C=C/CN(C)C)C5)c4n3)cc2)CCN1C [Example 228] | A (A represents a value of 3 or above)
C=CC(=O)N1CCN(CCn2c(=O)ccc3cnc(Nc4cnn(CCOCC)c4)nc32)[C@@H](C)C1 [Example 229] | A (A represents a value of 3 or above)
C=CC(=O)N1CCN(CCn2c(=O)ccc3cnc(Nc4cnn(CCOC(C)C)c4)nc32)[C@@H](C)C1 [Example 230] | A (A represents a value of 3 or above)
C=CC(=O)N1CCN(CCn2c(=O)ccc3cnc(Nc4cnn(C5CCN(C)CC5)c4)nc32)[C@@H](C)C1 [Example 231] | A (A represents a value of 3 or above)
C=CC(=O)N1CCN(CCn2c(=O)ccc3cnc(Nc4cnn(CC(F)F)c4)nc32)[C@@H](C)C1 [Example 232] | A (A represents a value of 3 or above)

Each compound was assayed against Tyk2 (Homo sapiens (Human), UniProt P29597) (assay: Biochemical Tyk2 kinase assay (LanthaScreen)). Conditions: not given.
Sequence of Tyk2 (P29597 whole entry): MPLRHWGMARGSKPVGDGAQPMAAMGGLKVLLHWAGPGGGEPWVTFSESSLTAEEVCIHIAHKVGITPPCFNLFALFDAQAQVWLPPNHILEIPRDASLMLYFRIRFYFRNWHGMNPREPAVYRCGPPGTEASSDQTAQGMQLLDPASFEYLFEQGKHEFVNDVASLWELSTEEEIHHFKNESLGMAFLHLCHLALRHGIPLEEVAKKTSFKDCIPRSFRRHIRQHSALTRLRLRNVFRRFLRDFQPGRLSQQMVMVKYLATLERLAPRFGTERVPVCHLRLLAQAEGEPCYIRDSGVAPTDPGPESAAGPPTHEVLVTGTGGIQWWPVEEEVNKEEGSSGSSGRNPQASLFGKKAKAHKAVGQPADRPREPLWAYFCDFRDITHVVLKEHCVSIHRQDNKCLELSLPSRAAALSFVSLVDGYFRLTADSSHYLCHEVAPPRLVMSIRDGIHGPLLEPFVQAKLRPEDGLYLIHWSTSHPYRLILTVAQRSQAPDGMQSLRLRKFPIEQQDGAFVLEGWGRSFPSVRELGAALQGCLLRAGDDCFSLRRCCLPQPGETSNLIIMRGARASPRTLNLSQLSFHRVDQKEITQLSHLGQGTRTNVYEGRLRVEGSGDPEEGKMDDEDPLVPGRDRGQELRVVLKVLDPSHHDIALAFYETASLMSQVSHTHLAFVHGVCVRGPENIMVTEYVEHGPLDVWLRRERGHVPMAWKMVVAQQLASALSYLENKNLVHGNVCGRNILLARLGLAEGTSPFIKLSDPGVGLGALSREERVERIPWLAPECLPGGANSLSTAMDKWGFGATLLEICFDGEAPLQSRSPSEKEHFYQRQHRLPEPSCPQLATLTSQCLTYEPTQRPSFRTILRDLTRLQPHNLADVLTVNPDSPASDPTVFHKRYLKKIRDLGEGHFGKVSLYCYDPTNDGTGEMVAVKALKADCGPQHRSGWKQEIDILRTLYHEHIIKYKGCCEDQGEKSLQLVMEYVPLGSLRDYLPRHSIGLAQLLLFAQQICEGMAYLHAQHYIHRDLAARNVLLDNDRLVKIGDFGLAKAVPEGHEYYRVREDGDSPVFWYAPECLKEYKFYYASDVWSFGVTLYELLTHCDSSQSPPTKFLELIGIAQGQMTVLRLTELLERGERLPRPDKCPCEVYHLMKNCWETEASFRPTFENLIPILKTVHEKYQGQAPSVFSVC
How it was run: as §1

SMILES | Tyk 2 (pKi)
C=CC(=O)N1CC(CCn2c(=O)ccc3cnc(Nc4ccc(N(C)Cc5ccccc5)cc4)nc32)C1 [Example 225] | E (E represents a pKi value of 7 or below (Ki of 100 nM or above))
C=CC(=O)N1CC(CCn2c(=O)ccc3cnc(Nc4ccn(C)n4)nc32)C1 [Example 226] | E (E represents a pKi value of 7 or below (Ki of 100 nM or above))
C[C@H]1CN(c2ccc(Nc3ncc4ccc(=O)n(CCC5CN(C(=O)/C=C/CN(C)C)C5)c4n3)cc2)CCN1C [Example 227] | E (E represents a pKi value of 7 or below (Ki of 100 nM or above))
C[C@@H]1CN(c2ccc(Nc3ncc4ccc(=O)n(CCC5CN(C(=O)/C=C/CN(C)C)C5)c4n3)cc2)CCN1C [Example 228] | E (E represents a pKi value of 7 or below (Ki of 100 nM or above))
C=CC(=O)N1CCN(CCn2c(=O)ccc3cnc(Nc4cnn(CCOCC)c4)nc32)[C@@H](C)C1 [Example 229] | E (E represents a pKi value of 7 or below (Ki of 100 nM or above))
C=CC(=O)N1CCN(CCn2c(=O)ccc3cnc(Nc4cnn(CCOC(C)C)c4)nc32)[C@@H](C)C1 [Example 230] | E (E represents a pKi value of 7 or below (Ki of 100 nM or above))
C=CC(=O)N1CCN(CCn2c(=O)ccc3cnc(Nc4cnn(C5CCN(C)CC5)c4)nc32)[C@@H](C)C1 [Example 231] | E (E represents a pKi value of 7 or below (Ki of 100 nM or above))
C=CC(=O)N1CCN(CCn2c(=O)ccc3cnc(Nc4cnn(CC(F)F)c4)nc32)[C@@H](C)C1 [Example 232] | E (E represents a pKi value of 7 or below (Ki of 100 nM or above))
